Test system: CD8+ T cells
Assay: In vitro T-cell priming assay with aAPCs loaded with peptide/MHC complexes and anti-CD28 antibody, pMHC multimer readout
Type: cell-based, human
Conditions: healthy HLA-A*02+ donors, positive donors
From the text: In order to obtain information regarding the immunogenicity of the TUMAPs of the present invention, the inventors performed investigations using an in vitro T-cell priming assay based on repeated stimulations of CD8+ T cells with artificial antigen presenting cells (aAPCs) loaded with peptide/MHC complexes and anti-CD28 antibody.
In order to perform in vitro stimulations by artificial antigen presenting cells loaded with peptide-MHC complex (pMHC) and anti-CD28 antibody, the inventors first isolated CD8+ T cells from fresh HLA-A*02 leukapheresis products via positive selection using CD8 microbeads (Miltenyi Biotec, Bergisch-Gladbach, Germany) of healthy donors obtained from the University clinics Mannheim, Germany, after informed consent. PBMCs and isolated CD8+ lymphocytes were incubated in T-cell medium (TCM) until use consisting of RPMI-Glutamax (Invitrogen, Karlsruhe, Germany) supplemented with 10% heat inactivated human AB serum (PAN-Biotech, Aidenbach, Germany), 100 U/ml Penicillin/100 μg/ml Streptomycin (Cambrex, Cologne, Germany), 1 mM sodium pyruvate (CC Pro, Oberdorla, Germany), 20 μg/ml Gentamycin (Cambrex). 2.5 ng/ml IL-7 (PromoCell, Heidelberg, Germany) and 10 U/ml IL-2 (Novartis Pharma, Nürnberg, Germany) were also added to the TCM at this step. Generation of pMHC/anti-CD28 coated beads, T-cell stimulations and readout was performed in a highly defined in vitro system using four different pMHC molecules per stimulation condition and 8 different pMHC molecules per readout condition.
The purified co-stimulatory mouse IgG2a anti human CD28 Ab 9.3 (Jung et al., 1987) was chemically biotinylated using Sulfo-N-hydroxysuccinimidobiotin as recommended by the manufacturer (Perbio, Bonn, Germany). Beads used were 5.6 μm diameter streptavidin coated polystyrene particles (Bangs Laboratories, Illinois, USA).
pMHC used for positive and negative control stimulations were A*0201/MLA-001 (peptide […] (SEQ ID NO. 289) from modified Melan-A/MART-1) and A*0201/DDX5-001 ([…] from DDX5, SEQ ID NO. 290), respectively.
800.000 beads/200 μl were coated in 96-well plates in the presence of 4×12.5 ng different biotin-pMHC, washed and 600 ng biotin anti-CD28 were added subsequently in a volume of 200 μl. Stimulations were initiated in 96-well plates by co-incubating […] CD8+ T cells with 2×10^5 washed coated beads in 200 μl TCM supplemented with 5 ng/ml IL-12 (PromoCell) for 3 days at 37° C. Half of the medium was then exchanged by fresh TCM supplemented with 80 U/ml IL-2 and incubating was continued for 4 days at 37° C. This stimulation cycle was performed for a total of three times. For the pMHC multimer readout using 8 different pMHC molecules per condition, a two-dimensional combinatorial coding approach was used as previously described (Andersen et al., 2012) with minor modifications encompassing coupling to 5 different fluorochromes. Finally, multimeric analyses were performed by staining the cells with Live/dead near IR dye (Invitrogen, Karlsruhe, Germany), CD8-FITC antibody clone SK1 (BD, Heidelberg, Germany) and fluorescent pMHC multimers. For analysis, a BD LSRII SORP cytometer equipped with appropriate lasers and filters was used. Peptide specific cells were calculated as percentage of total CD8+ cells. Evaluation of multimeric analysis was done using the FlowJo software (Tree Star, Oregon, USA). In vitro priming of specific multimer+ CD8+ lymphocytes was detected by comparing to negative control stimulations.
Exemplary flow cytometry results after TUMAP-specific multimer staining for 2 peptides of the invention are shown in FIG. 3 together with corresponding negative controls.

| Substance | in vitro immunogenicity, donors |
| --- | --- |
| 287 (KIQEILTQV; listed as Homo sapiens) [compound 287] | +++ (50%-69% = +++) |
| 288 (SLYKGLLSV; listed as Homo sapiens) [compound 288] | ++++ (>=70% = ++++) |

Same assay, conditions: healthy HLA-A*02+ donors, positive wells

| Substance | in vitro immunogenicity, wells |
| --- | --- |
| 287 (KIQEILTQV; listed as Homo sapiens) [compound 287] | + (<20% = +) |

Same assay, conditions: in vitro immunogenicity, HLA-A*02 restricted peptides, CD8+ T cells of healthy donors, pMHC multimer readout

| Substance | Wells positive [%] |
| --- | --- |
| 263 (SIIEYLPTL; listed as Homo sapiens) [compound 263] | + (<20% = +) |
| 121 (ALYVQAPTV; listed as Homo sapiens) [compound 121] | + (<20% = +) |
| 29 (KMISAIPTL; listed as Homo sapiens) [compound 29] | + (<20% = +) |
| 257 (KLIDHQGLYL; listed as Homo sapiens) [compound 257] | + (<20% = +) |
| 89 (SLAETIFIV; listed as Homo sapiens) [compound 89] | + (<20% = +) |
| 242 (KLQEEIPVL; listed as Homo sapiens) [compound 242] | + (<20% = +) |
| 66 (AMFPDTIPRV; listed as Homo sapiens) [compound 66] | + (<20% = +) |
| 77 (ALYGNVQQV; listed as Homo sapiens) [compound 77] | + (<20% = +) |
| 264 (TLHDQVHLL; listed as Homo sapiens) [compound 264] | + (<20% = +) |
| 9 (SLITGQDLLSV; listed as Homo sapiens) [compound 9] | + (<20% = +) |
| 246 (ALAGIVTNV; listed as Homo sapiens) [compound 246] | + (<20% = +) |
| 102 (GLYPVTLVGV; listed as Homo sapiens) [compound 102] | + (<20% = +) |
| 157 (ILQDGQFLV; listed as Homo sapiens) [compound 157] | + (<20% = +) |
| 97 (KLFEKSTGL; listed as Homo sapiens) [compound 97] | + (<20% = +) |
| 39 (YLEDGFAYV; listed as Homo sapiens) [compound 39] | ++++ (>=70% = ++++) |
| 4 (VLFGELPAL; listed as Homo sapiens) [compound 4] | + (<20% = +) |
| 255 (FLMKNSDLYGA; listed as Homo sapiens) [compound 255] | + (<20% = +) |
| 17 (GLLPSAESIKL; listed as Homo sapiens) [compound 17] | + (<20% = +) |
| 50 (ILLSVLHQL; listed as Homo sapiens) [compound 50] | + (<20% = +) |
| 233 (SLFESLEYL; listed as Homo sapiens) [compound 233] | + (<20% = +) |
| 260 (ALNESLVEC; listed as Homo sapiens) [compound 260] | + (<20% = +) |
| 236 (KMSELQTYV; listed as Homo sapiens) [compound 236] | + (<20% = +) |
| 14 (YTFSGDVQL; listed as Homo sapiens) [compound 14] | + (<20% = +) |
| 101 (SLLEVNEASSV; listed as Homo sapiens) [compound 101] | + (<20% = +) |
| 35 (VIIKGLEEI; listed as Homo sapiens) [compound 35] | + (<20% = +) |
| 254 (ALGDKFLLRV; listed as Homo sapiens) [compound 254] | + (<20% = +) |
| 34 (TLNTLDINL; listed as Homo sapiens) [compound 34] | ++++ (>=70% = ++++) |
| 27 (GLLGKVTSV; listed as Homo sapiens) [compound 27] | + (<20% = +) |
| 267 (YLLDMPLWYL; listed as Homo sapiens) [compound 267] | + (<20% = +) |

From patent publication US10336809B2, “Peptides and combination of peptides for use in immunotherapy against various tumors” (immatics biotechnologies GmbH, priority 2015, dated 2019)
